Source: ChEMBL document CHEMBL1140143, “Combining ligand-based pharmacophore modeling, quantitative structure-activity relationship analysis and in silico screening for the discovery of new potent hormone sensitive lipase inhibitors” (J Med Chem, 2008)

The compounds below were run against T1, Hormone-sensitive lipase (Rattus norvegicus, UniProt P15304) (assay: Inhibition of HSL in Wistar rat isolated fat cells by spectrophotometric assay).
T1 sequence (P15304 whole entry): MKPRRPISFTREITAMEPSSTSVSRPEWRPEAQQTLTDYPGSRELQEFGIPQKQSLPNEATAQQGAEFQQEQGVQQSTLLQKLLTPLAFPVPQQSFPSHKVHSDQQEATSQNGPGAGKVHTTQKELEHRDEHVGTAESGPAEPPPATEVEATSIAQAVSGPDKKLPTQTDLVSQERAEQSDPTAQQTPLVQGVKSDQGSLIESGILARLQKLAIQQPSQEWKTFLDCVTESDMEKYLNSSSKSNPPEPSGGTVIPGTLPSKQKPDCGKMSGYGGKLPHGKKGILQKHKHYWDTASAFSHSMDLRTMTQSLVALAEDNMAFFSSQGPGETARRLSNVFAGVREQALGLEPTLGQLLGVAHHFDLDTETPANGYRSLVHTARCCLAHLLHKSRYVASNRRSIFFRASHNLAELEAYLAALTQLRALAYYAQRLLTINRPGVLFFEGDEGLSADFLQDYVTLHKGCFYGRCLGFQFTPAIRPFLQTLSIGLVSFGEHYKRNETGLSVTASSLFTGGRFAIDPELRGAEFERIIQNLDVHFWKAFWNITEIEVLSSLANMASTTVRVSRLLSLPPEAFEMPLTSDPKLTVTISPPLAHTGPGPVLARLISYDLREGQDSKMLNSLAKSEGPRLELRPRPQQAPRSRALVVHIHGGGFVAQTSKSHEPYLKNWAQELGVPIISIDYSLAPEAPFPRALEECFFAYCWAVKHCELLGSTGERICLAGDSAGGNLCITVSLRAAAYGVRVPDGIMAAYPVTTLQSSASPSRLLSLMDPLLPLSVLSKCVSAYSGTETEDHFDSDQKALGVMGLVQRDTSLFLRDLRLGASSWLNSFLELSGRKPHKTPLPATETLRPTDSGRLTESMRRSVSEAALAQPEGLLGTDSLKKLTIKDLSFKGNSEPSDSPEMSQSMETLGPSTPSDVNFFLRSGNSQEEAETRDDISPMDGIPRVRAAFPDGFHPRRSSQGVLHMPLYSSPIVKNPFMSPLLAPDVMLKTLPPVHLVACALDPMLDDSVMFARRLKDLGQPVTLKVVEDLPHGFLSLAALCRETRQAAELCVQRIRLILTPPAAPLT

Structure (SMILES) | IC50 [nM]
CCCCCCSc1nc(-c2ccc(C)cc2)nn1C(=O)N(C)c1ccccc1 | 12.3
Cc1c(Sc2ccccc2)c(=O)on1C(=O)N1CCCCC1 | 6
Cc1c(Cc2cc3ccccc3n2C)c(=O)on1C(=O)N1CCCCC1 | 17
Cc1nnc(C2CCN(C(=O)n3oc(=O)c(C(C)C)c3C)CC2)o1 | > 1000
Cc1c(C(C)C)c(=O)on1C(=O)N1CCCC(CO)C1 (centres undefined) | 180
Cc1c(-c2ccccc2)c(=O)on1C(=O)N1CCCCC1 | 14
Cc1ccc(-c2nc(SCC(F)(F)F)n(C(=O)N(C)C)n2)cc1 | 10.6
Cc1c(C(C)C)c(=O)on1C(=O)N(C)Cc1ccccc1 | 5
CSc1nc(-c2ccc(C(F)(F)F)cc2)nn1C(=O)N(C)C | 1.76
CCCCCCSc1nc(-c2ccc(Cl)cc2)nn1C(=O)N(C)c1ccccc1 | 7.06
Cc1c(C(C)C)c(=O)on1C(=O)N1CCCCC1 | 2
Cc1c(C(C)C)c(=O)on1C(=O)N(C)CCC#N | > 1000
CCCCc1c(C)n(C(=O)N2CCC(C)CC2)oc1=O | 1
CCOc1nn(-c2cccc(OCc3ccccc3)c2)c(=O)o1 | 19.4
Cc1c(C2CCOCC2)c(=O)on1C(=O)N1CCCCC1 | 71
CN(C(=O)n1nc(-c2ccc(Cl)cc2)nc1SCC(F)(F)F)c1ccccc1 | 3
Cc1c(Cc2ccccc2)c(=O)on1C(=O)N1CCCCC1 | 5
CSc1nc(-c2ccc(C)cc2)nn1C(=O)N(C)C | 0.53
CCCCCCSc1nc(-c2ccc(C)cc2)nn1C(=O)N(C)C | 882
CN(C(=O)n1nc(-c2ccc(Cl)cc2)nc1SCC1CC1)c1ccccc1 | 1.09
Cc1c(C(C)C)c(=O)on1C(=O)N(C)Cc1cccs1 | 2
Cc1c(CCOc2ccccc2)c(=O)on1C(=O)N1CCCCC1 | 4
CSc1nc(-c2ccc(Cl)cc2)nn1C(=O)N1CCCCC1 | 1.76

Structure (SMILES) | IC50 [nM]
CSc1nc(-c2ccc(Cl)cc2)nn1C(=O)N1CCOCC1 | 35.3
Cc1ccc(C2CCN(C(=O)n3oc(=O)c(C(C)C)c3C)CC2)cc1 | 37
Cc1c(C2CCS(=O)(=O)CC2)c(=O)on1C(=O)N1CCCCC1 | 55
COc1ccc(-c2nc(SC)n(C(=O)N(C)C)n2)cc1 | 15.9
Cc1c(Sc2ccc(Cl)cc2)c(=O)on1C(=O)N1CCCCC1 | 6
Cc1c(C(C)C)c(=O)on1C(=O)N1CCC(C(=O)N(C)C)CC1 | > 1000
CCCSc1nc(-c2ccc(Cl)cc2)nn1C(=O)N(C)C | 1.06
Cc1c(C(C)C)c(=O)on1C(=O)N(C)CCc1ccccc1 | 180
Cc1c(C(C)C)c(=O)on1C(=O)N1CCSCC1 | 8
CCCCc1c(C)n(C(=O)N2CCCCC2)oc1=O | 7
COCCc1c(C)n(C(=O)N2CCC(c3cccc(C)c3)CC2)oc1=O | 23
Cc1c(C(C)C)c(=O)on1C(=O)N1CCC(c2cccc(F)c2)CC1 | 12
CCN(CC)C(=O)n1oc(=O)c(C(C)C)c1C | 1400
Cc1c(C(C)C)c(=O)on1C(=O)N1CCC(c2ccc(C(F)(F)F)cc2)CC1 | 160
Cc1c(C(C)C)c(=O)on1C(=O)N(C)Cc1cccc(F)c1 | 5
Cc1c(C2CCSCC2)c(=O)on1C(=O)N1CCC(C)CC1 | 6
Cc1c(C(C)C)c(=O)on1C(=O)N1CCC(Cc2ccccc2)CC1 | 102
CSc1nc(-c2ccc(OC(F)(F)F)cc2)nn1C(=O)N(C)c1ccccc1 | 4.41
Cc1c(C(C)C)c(=O)on1C(=O)N(C)CC(N)=O | > 1000
COCCc1c(C)n(C(=O)N2CCC(c3cccc(F)c3)CC2)oc1=O | 20
CSc1nc(-c2cccc3ccccc23)nn1C(=O)N(C)C | 35.3
CSc1nc(-c2ccc(Cl)cc2)nn1C(=O)N(C)C | 0.353
Cc1c(C(C)C)c(=O)on1C(=O)N1CCC(C(=O)c2ccccc2)CC1 | 250

Structure (SMILES) | IC50 [nM]
Cc1c(C2CCCC2)c(=O)on1C(=O)N1CCCCC1 | 6
Cc1ccc(CN(C)C(=O)n2oc(=O)c(C(C)C)c2C)cc1 | 408
Cc1c(C(C)C)c(=O)on1C(=O)N1CCC(c2ccc(C(C)(C)C)cc2)CC1 | 480
Cc1c(C(C)C)c(=O)on1C(=O)N1CCCCCCC1 | 900
COCCc1c(C)n(C(=O)N2CCCCC2)oc1=O | 10
Cc1c(C(C)C)c(=O)on1C(=O)N(C)Cc1ccco1 | 4
Cc1c(C(C)C)c(=O)on1C(=O)N1CCN(Cc2ccccc2)CC1 | 65
Cc1c(C2CCCC2)c(=O)on1C(=O)N1CCC(c2ccccc2)CC1 | 24
Cc1c(C(C)C)c(=O)on1C(=O)N1CCCCC1C (centres undefined) | 93
CCOC(=O)C1CCN(C(=O)n2oc(=O)c(C(C)C)c2C)CC1 | 6
Cc1c(C(C)C)c(=O)on1C(=O)N1CCC(O)CC1 | 166
Cc1c(C(C)C)c(=O)on1C(=O)N1CCCC(C)(C)C1 | 7
Cc1c(C(C)C)c(=O)on1C(=O)N1CCC(C)CC1 | 6
CSc1nc(-c2ccc(-c3ccccc3)cc2)nn1C(=O)N(C)C | 26.5
Cc1c(C(C)C)c(=O)on1C(=O)N1CC=CC1 | 72
Cc1c(C(C)C)c(=O)on1C(=O)N1CC(C)CC(C)C1 (centres undefined) | 326
CCSc1nc(-c2ccc(Cl)cc2)nn1C(=O)N(C)C | 3.71
Cc1c(C2CCCCC2)c(=O)on1C(=O)N1CCC(C)CC1 | 4
Cc1c(C(C)C)c(=O)on1C(=O)N1CCC[C@@H](C)C1 | 20
CSc1nc(/C=C/c2ccccc2)nn1C(=O)N(C)C | 882
Cc1c(C(C)C)c(=O)on1C(=O)N1CCN(c2ncccn2)CC1 | 67
Cc1c(C2CCSCC2)c(=O)on1C(=O)N1CCCCC1 | 11
Cc1c(CC(C)C)c(=O)on1C(=O)N1CCCCC1 | 5

Structure (SMILES) | IC50 [nM]
Cc1c(C(C)C)c(=O)on1C(=O)N1CCC(=O)CC1 | 200
Cc1c(C(C)(C)C)c(=O)on1C(=O)N1CCCCC1 | 14
CSc1nc(-c2ccc(C)cc2)nn1C(=O)N1CCOCC1 | 70.6
CCOC(=O)C1CCCN(C(=O)n2oc(=O)c(C(C)C)c2C)C1 (centres undefined) | 28
COc1nn(-c2ccc(NC(=O)c3ccc(C(C)(C)C)cc3)cc2)c(=O)o1 | 0.41
Cc1c(C(C)C)c(=O)on1C(=O)N1CCN(c2ccccc2)CC1 | 6
CSc1nc(-c2ccc(C)cc2)nn1C(=O)N(C)c1ccccc1 | 1.76
CCN(CC)C(=O)C1CCCN(C(=O)n2oc(=O)c(C(C)C)c2C)C1 (centres undefined) | > 1000
CSc1nc(-c2ccc(OC(F)(F)F)cc2)nn1C(=O)N(C)C | 1.76
Cc1c(C(C)C)c(=O)on1C(=O)NCC1CCCCC1 | 72
CCCCCCSc1nc(-c2ccc(Cl)cc2)nn1C(=O)N1CCOCC1 | 882
Cc1c(C(C)C)c(=O)on1C(=O)N(C)Cc1ccccc1F | 4
Cc1c(C(C)C)c(=O)on1C(=O)N1CCC(O)(c2ccccc2)CC1 | > 1000
Cc1c(C(C)C)c(=O)on1C(=O)N1CCCC1 | 15
Cc1c(C(C)C)c(=O)on1C(=O)Nc1ccccc1 | > 1000
Cc1c(C(C)C)c(=O)on1C(=O)N(C)c1ccc(Cl)cc1 | 17
Cc1c(CC(C)C)c(=O)on1C(=O)N1CCC(C)CC1 | 3
O=C(N1CCCCC1)n1nc(-c2ccc(Cl)cc2)nc1SC1CCCCC1 | 882
CCSc1nc(-c2ccc(OC)cc2)nn1C(=O)N(C)c1ccccc1 | 5.29
Cc1c(C(C)C)c(=O)on1C(=O)N1CCNCC1 | > 1000
